Laboratory results: patent publication US20100056524A1, “Compound” (priority 2008, published 2010)
pIC50: −log10 of the molar value. Counter-ions that a name gives are not always drawn.

Target: T1, TBK1 (Homo sapiens, UniProt Q9UHD2)
T1 construct: All protein kinases were of human origin and encoded full length proteins, unless indicated otherwise; His6; made in house; host or cells: insect Sf21 cells
T1 sequence (Q9UHD2 1-729): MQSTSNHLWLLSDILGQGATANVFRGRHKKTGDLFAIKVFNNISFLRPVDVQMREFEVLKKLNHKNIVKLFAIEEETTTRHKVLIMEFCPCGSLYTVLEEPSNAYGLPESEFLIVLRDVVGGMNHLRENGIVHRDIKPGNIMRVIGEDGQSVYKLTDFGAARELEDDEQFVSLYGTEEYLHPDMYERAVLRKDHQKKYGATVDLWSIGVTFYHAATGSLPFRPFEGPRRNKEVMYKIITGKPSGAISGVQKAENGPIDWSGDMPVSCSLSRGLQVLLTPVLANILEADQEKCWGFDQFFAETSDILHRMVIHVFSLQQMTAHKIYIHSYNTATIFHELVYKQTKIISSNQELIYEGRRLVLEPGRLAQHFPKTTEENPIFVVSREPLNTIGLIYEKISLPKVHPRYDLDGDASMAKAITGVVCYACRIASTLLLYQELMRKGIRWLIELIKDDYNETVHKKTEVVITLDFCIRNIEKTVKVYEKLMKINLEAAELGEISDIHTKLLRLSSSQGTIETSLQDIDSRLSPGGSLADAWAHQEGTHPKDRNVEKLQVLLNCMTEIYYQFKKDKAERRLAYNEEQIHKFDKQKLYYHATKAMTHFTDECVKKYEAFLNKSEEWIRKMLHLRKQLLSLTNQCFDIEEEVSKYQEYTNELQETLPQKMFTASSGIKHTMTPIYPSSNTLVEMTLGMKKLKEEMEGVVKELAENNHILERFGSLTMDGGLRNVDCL
Experiment: TBK1 protein kinase assay ([γ-33P]ATP, P81 filterplates)
Format: biochemical
Details: 50 μM ATP; read-out: Potency (TBK1 IC50 potency score)
From the text: All protein kinases were of human origin and encoded full length proteins, unless indicated otherwise. They were either expressed as glutathione S-transferase (GST) fusion proteins in Escherichia Coli or as hexahistidine (His6)-tagged proteins in insect Sf21 cells. GST fusion proteins were purified by affinity chromatography on glutathione-Sepharose, and His6-tagged proteins on nickel/nitriloacetate-agarose. The procedures for expressing some of the protein kinases used herein have been detailed previously.^8,9 The following sections outline the DNA vectors synthesised and the procedures used to express and purifying protein kinases that have not been reported previously.
The following kinases were expressed in Sf21 cells: Aurora B and Aurora C, extra-cellular signal-regulated kinase 8 (ERK8), microtubule affinity regulating kinase 3 (MARK3), protein kinase Bα[118-480][S473D], protein kinase Bβ (PKBβ[120-481][S474D], 3-phosphoinositide-dependent protein kinase-1 [52-556]
Assays were performed for 30 min using Multidrop Micro reagent dispensers (Thermo Electron Corporation, Waltham, Mass. 02454, USA) in a 96-well format. The concentration of magnesium acetate in the assays was 10 mM and the [γ-33P] ATP (800 cpm/pmol) was used at 5, 20 or 50 μM as indicated, in order to be at or below the Km for ATP for each enzyme. Protein kinases assayed at 5 μM ATP were: —ERK1, ERK8, PKBα, MARK3, Aurora C. Protein kinases assayed at 20 μM ATP were: —JNK1, PDK1, CHK1, CHK2, CDK2 and Aurora B. Protein kinases assayed at 50 μM ATP were: —MNK2, IKKepsilon and TBK1.
The assays were initiated with MgATP, stopped by addition of 5 μl of 0.5 M orthophosphoric acid and spotted on to P81 filterplates using a unifilter harvester (PerkinElmer, Boston, Mass. 02118, USA). The IC50 values of inhibitors were determined after carrying out assays at 10 different concentrations of each compound.
ERK1 and ERK8 were both assayed against myelin basic protein (MBP, 0.33 mg/ml). MARK3 was assayed against the peptide […] (300 μM), MNK2 against the eIF4E protein (0.5 mg/ml). PKBβ was assayed against the peptide […] (30 μM). TBK1 were assayed against ([…]) (300 μM). The substrates used for other protein kinases were described previously.^8,9
Unless stated otherwise, enzymes were diluted in 50 mM Tris/HCl pH 7.5, 0.1 mM EGTA, 1 mg/ml BSA, 0.1% (v/v) 2-mercaptoethanol and assayed in 50 mM Tris/HCl pH 7.5, 0.1 mM EGTA, 0.1% (v/v) 2-mercaptoethanol.

| pIC50 | Structure (SMILES) |
| --- | --- |
| 6.00 to 7.00 | O=C(NCCCNc1nc(Nc2cccc(N3CCOCC3)c2)ncc1C1CC1)c1cccs1 [Example 46, Thiophene-2-carboxylic acid {3-[5-cyclopropyl-2-(3-morpholin-4-yl-phenylamino)-pyrimidin-4-ylamino]-propyl}-amide trifluoroacetic acid salt] |
| > 7.00 | O=C(NCCCNc1nc(Nc2cccc(N3CCCC3=O)c2)ncc1C1CC1)C1CCC1 [Example 48, Cyclobutanecarboxylic acid (3-{5-cyclopropyl-2-[3-(2-oxo-pyrrolidin-1-yl)-phenylamino]-pyrimidin-4-ylamino}-propyl)-amide] |
| > 7.00 | O=C(NCCCNc1nc(Nc2cccc(NC(=O)N3CCCC3)c2)ncc1C1CC1)c1cccs1 [Example 49, Pyrrolidine-1-carboxylic acid [3-(5-cyclopropyl-4-{3-[(thiophene-2-carbonyl)-amino]-propylamino}-pyrimidin-2-ylamino)-phenyl]-amide] |
| > 7.00 | CC(=O)Nc1cccc(Nc2ncc(C3CC3)c(NCCCNC(=O)c3cccs3)n2)c1 [Example 51, Thiophene-2-carboxylic acid {3-[2-(3-acetylamino-phenylamino)-5-cyclopropyl-pyrimidin-4-ylamino]-propyl}-amide] |
| 6.00 to 7.00 | O=C(NCCCNc1nc(Nc2ccccc2F)ncc1C1CC1)c1cccs1 [Example 52, Thiophene-2-carboxylic acid {3-[5-cyclopropyl-2-(2-fluoro-phenylamino)-pyrimidin-4-ylamino]-propyl}-amide] |
| 5.00 to 6.00 | O=C(NCCCNc1nc(Nc2ccc3cnccc3c2)ncc1C1CC1)c1cccs1 [Example 53, Thiophene-2-carboxylic acid {3-[5-cyclopropyl-2-(isoquinolin-6-ylamino)-pyrimidin-4-ylamino]-propyl}-amide] |
| > 7.00 | O=C(NCCCNc1nc(Nc2ccc(N3CCOCC3)nc2)ncc1C1CC1)c1cccs1 [Example 54, Thiophene-2-carboxylic acid {3-[5-cyclopropyl-2-(6-morpholin-4-yl-pyridin-3-ylamino)-pyrimidin-4-ylamino]-propyl}-amide] |
| 6.00 to 7.00 | O=C(NCCCNc1nc(Nc2cccc(Cl)c2)ncc1C1CC1)c1cccs1 [Example 55, Thiophene-2-carboxylic acid {3-[2-(3-chloro-phenylamino)-5-cyclopropyl-pyrimidin-4-ylamino]-propyl}-amide] |
| 6.00 to 7.00 | O=C(NCCCNc1nc(Nc2ccc3nccnc3c2)ncc1C1CC1)c1cccs1 [Example 56, Thiophene-2-carboxylic acid {3-[5-cyclopropyl-2-(quinoxalin-6-ylamino)-pyrimidin-4-ylamino]-propyl}-amide] |
| 6.00 to 7.00 | O=C(NCCCNc1nc(Nc2ccccc2)ncc1C1CC1)c1cccs1 [Example 57, Thiophene-2-carboxylic acid [3-(5-cyclopropyl-2-phenylamino-pyrimidin-4-ylamino)-propyl]-amide] |
| 6.00 to 7.00 | O=C(NCCCNc1nc(Nc2ccc(F)cc2)ncc1C1CC1)c1cccs1 [Example 58, Thiophene-2-carboxylic acid {3-[5-cyclopropyl-2-(4-fluoro-phenylamino)-pyrimidin-4-ylamino]-propyl}-amide] |
| 5.00 to 6.00 | Cc1ccccc1Nc1ncc(C2CC2)c(NCCCNC(=O)c2cccs2)n1 [Example 59, Thiophene-2-carboxylic acid [3-(5-cyclopropyl-2-o-tolylamino-pyrimidin-4-ylamino)-propyl]-amide] |
| 6.00 to 7.00 | Cc1nc2cc(Nc3ncc(C4CC4)c(NCCCNC(=O)c4cccs4)n3)ccc2s1 [Example 60, Thiophene-2-carboxylic acid {3-[5-cyclopropyl-2-(2-methyl-benzothiazol-5-ylamino)-pyrimidin-4-ylamino]-propyl}-amide] |
| 6.00 to 7.00 | N#Cc1cccc(Nc2ncc(C3CC3)c(NCCCNC(=O)c3cccs3)n2)c1 [Example 61, Thiophene-2-carboxylic acid {3-[2-(3-cyano-phenylamino)-5-cyclopropyl-pyrimidin-4-ylamino]-propyl}-amide] |
| 5.00 to 6.00 | O=C(NCCCNc1nc(Nc2ccc3[nH]c(C(F)(F)F)nc3c2)ncc1C1CC1)c1cccs1 [Example 62, Thiophene-2-carboxylic acid {3-[5-cyclopropyl-2-(2-trifluoromethyl-1H-benzimidazol-5-ylamino)-pyrimidin-4-ylamino]-propyl}-amide] |
| 6.00 to 7.00 | O=C(NCCCNc1nc(Nc2ccncc2)ncc1C1CC1)c1cccs1 [Example 63, Thiophene-2-carboxylic acid {3-[5-cyclopropyl-2-(pyridin-4-ylamino)-pyrimidin-4-ylamino]-propyl}-amide] |
| > 7.00 | O=C(NCCCNc1nc(Nc2cncc(F)c2)ncc1C1CC1)C1CCC1 [Example 64, Cyclobutanecarboxylic acid {3-[5-cyclopropyl-2-(5-fluoro-pyridin-3-ylamino)-pyrimidin-4-ylamino]-propyl}-amide] |
| > 7.00 | O=C(NCCCNc1nc(Nc2cccnc2)ncc1C1CC1)C1CCC1 [Example 65, Cyclobutanecarboxylic acid {3-[5-cyclopropyl-2-(pyridin-3-ylamino)-pyrimidin-4-ylamino]-propyl}-amide] |
| > 7.00 | O=C(NCCCNc1nc(Nc2cccnc2)ncc1C1CC1)C1CCCC1 [Example 66, Cyclopentanecarboxylic acid {3-[5-cyclopropyl-2-(pyridin-3-ylamino)-pyrimidin-4-ylamino]-propyl}-amide] |
| > 7.00 | CC(=O)Nc1cccc(Nc2ncc(C3CC3)c(NCCCNC(=O)C3CCCC3)n2)c1 [Example 67, Cyclopentanecarboxylic acid {3-[2-(3-acetylamino-phenylamino)-5-cyclopropyl-pyrimidin-4-ylamino]-propyl}-amide] |
| > 7.00 | CC(=O)Nc1cccc(Nc2ncc(C3CC3)c(NCCCNC(=O)C3CCC3)n2)c1 [Example 68, Cyclobutanecarboxylic acid {3-[2-(3-acetylamino-phenylamino)-5-cyclopropyl-pyrimidin-4-ylamino]-propyl}-amide] |
| > 7.00 | Nc1cccc(Nc2ncc(C3CC3)c(NCCCNC(=O)c3cccs3)n2)c1 [Example 69, Thiophene-2-carboxylic acid {3-[2-(3-amino-phenylamino)-5-cyclopropyl-pyrimidin-4-ylamino]-propyl}-amide] |
| > 7.00 | O=C(NCCCNc1nc(Nc2cccc(CO)c2)ncc1C1CC1)C1CCC1 [Example 70, Cyclobutanecarboxylic acid {3-[5-cyclopropyl-2-(3-hydroxymethyl-phenylamino)-pyrimidin-4-ylamino]-propyl}-amide. xHCl salt] |
| > 7.00 | O=C(O)c1cccc(Nc2ncc(C3CC3)c(NCCCNC(=O)C3CCC3)n2)c1 [Example 71, 3-{4-[3-(Cyclobutanecarbonyl-amino)-propylamino]-5-cyclopropyl-pyrimidin-2-ylamino}-benzoic acid hydrochloride salt] |
| > 7.00 | O=C(NCCCNc1nc(Nc2cc(F)cc(F)c2)ncc1C1CC1)C1CCC1 [Example 72, Cyclobutanecarboxylic acid {3-[5-cyclopropyl-2-(3,5-difluoro-phenylamino)-pyrimidin-4-ylamino]-propyl}-amide. Hydrochloride salt] |
